The solubility is how much of the substance goes into solution per volume. As usually defined, the IC50 is the concentration that inhibits the measured activity by half.

The record followed here is US20260055088A1, “HETEROCYCLIC COMPOUND, METHOD FOR PREPARING SAME, AND PHARMACEUTICAL USE THEREOF” (Jiangsu Hengrui Pharmaceuticals Co., Ltd., priority 2022, published 2026).

Data set [1] can be described thus: Solubility in FassIF and FessIF solutions. It counts as physicochemical. The settings on record: thermodynamic from solid, 37° C. The source says:
Reagents: dimethyl sulfoxide (chromatographically pure, Sigma-Aldrich, Cat. No. 472301-4X4L), ethanol (chromatographically pure, CNW, Cat. No. 4.016362.4000), acetonitrile (chromatographically pure, FISHER, Cat. No. A998-4), NaH2PO4·2H2O (analytically pure, Sinopharm Chemical Reagent Co., Ltd., Cat. No. 20040717), ammonium acetate (chromatographically pure, ALADDIN, Cat. No. 17836-250G), FaSSIF/FeSSIF/FaSSGF powder (Biorelevant, Cat. No. FFF02), FaSSIF buffer concentrate (Biorelevant, Cat. No. FASBUF), FeSSIF buffer concentrate (Biorelevant, Cat. No. FESBUF), and ultrapure water (made in-house using an ELGA CHORUS laboratory water purification system).
Instrument: Agilent 1200 DAD liquid chromatograph (Agilent, U.S.)
FaSSIF solution: 2.0825 g of FaSSIF medium solution and 48.055 g of ultrapure water were weighed into a 50-mL beaker, and 0.112 g of FaSSIF/FeSSIF/FaSSGF powder was then added to the beaker. The mixture was stirred to dissolve the powder, and the solution was then equilibrated by standing for 2 h before use (the solution should be used within 48 h). […]
3.1. […] 10 μL of the stock solution (concentration 10 mM, dissolved in DMSO) was precisely measured out and well mixed with 990 μL of an organic solvent mixture (usually DMSO:acetonitrile:ethanol=1:1:1) in a 2-mL sample flask to form a 100 μM clear sample solution. […]

Data set [2] has as its target Nav1.8 ion channel stably expressed on HEK293 cells (Homo sapiens (Human), UniProt Q9Y5Y9). The data set can be described thus: Inhibitory activity against Nav1.8, manual patch clamp. It counts as cell-based. The note with it: resting protocol (-80 mV to 10 mV), 1 μM TTX, read-out: IC50 for the inhibition of Nav1.8 channel activity. The source says:
The objective of the experiment was to investigate the effects of the compounds on the Nav1.8 ion channel in ex vivo experiments. The Nav1.8 ion channel is stably expressed on HEK293 cells. After the Nav1.8 current stabilized, the effects of the compounds on the Nav1.8 ion channel were obtained by comparing the magnitudes of the Nav1.8 currents before and after the compounds were applied.
• 1) A patch clamp amplifier: patch clamp PC-505B (WARNER instruments)/MultiClamp 700A (Axon instrument) • 2) A digital-to-analog converter: Digidata 1440A (Axon CNS)/Digidata 1550A (Axon instruments) • 3) A micromanipulator: MP-225 (SUTTER instrument) • 4) An inverted microscope: TL4 (Olympus) • 5) Glass micropipette puller: PC-10 (NARISHIGE) • 6) Microelectrode glass capillaries: B12024F (Wuhan VitalSense Scientific Instruments Co., Ltd.) • 7) Dimethyl sulfoxide (DMSO) D2650 (Sigma-Aldrich) • 8) TTX AF3014 (Affix Scientific)
The compounds for preparing the intracellular and extracellular fluids were purchased from Sigma (St. Louis, MO) except for the NaOH and KOH for the acid-base titrations. The extracellular fluid (mM) was: NaCl, 137; KCl, 4; CaCl2, 1.8; MgCl2, 1; HEPES, 10; glucose, 10; pH 7.4 (NaOH titration). The intracellular fluid (mM) was: aspartic acid, 140; MgCl2, 2; EGTA, 11; HEPES, 10; pH 7.2 (CsOH titration). All test and control compound solutions contained 1 μM TTX.
The test compounds were stored at a concentration of 9 mM in dimethyl sulfoxide (DMSO). On the testing day, the compounds were further dissolved in the extracellular fluid to prepare the required concentrations.
1) After the compounds were prepared into solutions with specified concentrations, the compound solutions were sequentially added to channels in ascending order according to their concentrations, and each channel was labeled.
2) A cell was transferred to the perfusion chamber. Positive pressure was applied inside the electrode, and the electrode tip was brought into contact with the cell. The three-way valve of the suction device was switched to the state where all three ways were open, and negative pressure was then applied to the electrode, allowing a high-resistance seal to form between the electrode and the cell. The application of negative pressure was continued to rupture the cell membrane, leading to the formation of a current pathway.
3) After the cell membrane rupture current stabilized, perfusion was performed with different concentrations in sequence. If the current remained stable for at least one minute, perfusion was performed with the next concentration.
4) The perfusion chamber was cleaned. The perfusion chamber was rinsed with the compound solutions in descending order according to their concentrations, with each concentration applied for 20 s. Finally, the perfusion chamber was rinsed with the extracellular fluid for 1 min.
The cell was clamped at −80 mV and then depolarized to 10 mV using a square wave lasting for 10 ms to obtain a Nav1.8 current. This procedure was repeated once every 5 seconds. The maximum current induced by the square wave was detected. After the current stabilized, perfusion was performed with the test compounds. After the reaction stabilized, the strength of the blocking was calculated.
The data were stored on a computer system and analyzed. Data acquisition and analysis were performed using pCLAMP 10 (Molecular Devices, Union City, CA), and the results were reviewed by a manager. “Current stabilized” means that the changes in current over time were within a limited range. The magnitude of the current after stabilization was used to calculate the effect of the compound at this […].
The inhibitory activity of the compounds of the present disclosure against Nav1.8 was determined through the above assay.

In brackets after ≈: the same amount, converted by molar mass. Like-named read-outs stand apart in the source and are kept apart here.

Take `COc1c([C@H]2[C@H](C(=O)Nc3ccnc(C(=N)N)c3)O[C@@](C)(C(F)(F)F)[C@H]2C)ccc(F)c1F` [Example 20, (2R,3S,4S,5R)—N-(2-Carbamimidoylpyridin-4-yl)-3-(3,4-difluoro-2-methoxyphenyl)-4,5-dimethyl-5-(trifluoromethyl)tetrahydrofuran-2-carboxamide]: the solubility at 24 h in data set [1] (FassIF solution, read-out: Solubility in FassIF solution) amounted to 308 µM (≈ 145 µg/mL); in data set [1] (FessIF solution, read-out: Solubility in FessIF solution), 2410 µM (≈ 1140 µg/mL). For the same compound, in data set [2], the IC50 stood at 0.24 nM.
